# Data taken from paper PMC10702058, “Phase I dose escalation study and pilot efficacy analysis of LXI-15029, a novel mTOR dual inhibitor, in Chinese subjects with advanced malignant solid tumors” (BMC Cancer, 2023).
# Where two headings read alike, the source gives them in different places.
# Experiment: Plasma pharmacokinetics of LXI-15029 (LC-MS/MS, non-compartmental analysis)
# Assay type: in vivo, human
# Procedure: Blood samples for PK analysis of LXI-15029 were collected on day 1 (pre-dose, 20 min, 40 min, 1 h, 1.5 h, 2 h, 3 h, 4 h, 6 h, 8 h, 12 h, 24 h, and 48 h), cycle 1 day 8 (pre-dose), cycle 1 day 15 (pre-dose), and cycle 1 day 28 (pre-dose, 20 min, 40 min, 1 h, 1.5 h, 2 h, 3 h, 4 h, 6 h, 8 h, and 12 h). The blood samples were stored at -70°C until testing. The concentration of LXI-15029 in plasma was measured using the validated liquid chromatography-tandem mass spectrometry (LC–MS/MS) method. The concentration–time information of LXI-15029 was summarized based on pre-dose and post-dose data of each patient, to explore the linearity of exposure with single dose and steady-state situations, the time to reach steady state and the predictability of single to multiple doses PK. PK parameters were calculated separately for single and repeated doses using descriptive statistics. PK analysis was performed by Covance Central Laboratory using the validated software Phoenix WinNonlin Version 8.1 (Pharsight, Mountain View, CA). A standard non-compartmental method was used to calculate the peak plasma concentration (Cmax), time to reach the Cmax (tmax), the total area under the concentration–time curve (AUC0-∞), and the elimination half-life (t1/2).
# [1] = 150-mg BID group, compared with preclinical data
# [2] = human, plasma, oral, multiple dose, cycle 1 day 28, 10 mg BID (n = 3), geometric mean (coefficient of variation)
# [3] = human, plasma, oral, multiple dose, cycle 1 day 28, 20 mg BID (n = 3), geometric mean (coefficient of variation)
# [4] = human, plasma, oral, multiple dose, cycle 1 day 28, 40 mg BID (n = 3), geometric mean (coefficient of variation)
# [5] = human, plasma, oral, multiple dose, cycle 1 day 28, 60 mg BID (n = 4), geometric mean (coefficient of variation)
# [6] = human, plasma, oral, multiple dose, cycle 1 day 28, 80 mg BID (n = 4), geometric mean (coefficient of variation)
compound,measurement,setting,value
CNC(=O)c1cccc(-c2ccc3c(N4C5CCC4COC5)nc(N4CCOC[C@@H]4C)nc3n2)c1 [LXI-15029],increase of Cmax and AUC versus dose proportionality,"10 to 150 mg, single dose day 1 and cycle 1 day 28",greater than the dose proportionality
same,exposure relative to the NOAEL in dogs,[1],fivefold higher
same,exposure relative to the highest non-severely toxic dose (HNSTD) found in rats,[1],threefold higher
same,Cmax ss versus dose,"cycle 1 day 28, 10 to 150 mg",increased with the dose increase
same,"Cmin ss, Cav ss, and AUCss versus dose","cycle 1 day 28, 10 to 150 mg, except for 80 mg",increased with the dose increase
same,exposure (Cmax and AUC) versus dose,"day 1, 10 to 150 mg, except for 80 mg",increased with the dose increase
same,concentration at 28 day,"human, plasma, oral, 10 mg BID, multiple dose, cycle 1 day 28, 10 mg BID (n = 3), geometric mean (coefficient of variation), read-out: Cav ss",15.9 ng/mL
same,Tmax at 28 day,"human, plasma, oral, 10 mg, multiple dose, cycle 1 day 28, 10 mg BID (n = 3), median (min, max)",1.02 h
same,half-life,"human, plasma, oral, 10 mg, single dose, cycle 1 day 1, 10 mg BID (n = 3), arithmetic mean ± standard deviation, read-out: t1/2 (converted)",0.95 ± 0.205 h
same,Tmax,"human, plasma, oral, 10 mg, single dose, cycle 1 day 1, 10 mg BID (n = 3), median (min, max), read-out: Tmax",0.98 h
same,concentration at 28 day,"human, plasma, oral, 20 mg BID, multiple dose, cycle 1 day 28, 20 mg BID (n = 3), geometric mean (coefficient of variation), read-out: Cav ss",71.9 ng/mL
same,concentration at 28 day,"human, plasma, oral, 20 mg BID, multiple dose, cycle 1 day 28, 20 mg BID (n = 3), geometric mean (coefficient of variation), read-out: Cmin ss",1.61 ng/mL
same,Tmax at 28 day,"human, plasma, oral, 20 mg, multiple dose, cycle 1 day 28, 20 mg BID (n = 3), median (min, max)",1.47 h
same,half-life,"human, plasma, oral, 20 mg, single dose, cycle 1 day 1, 20 mg BID (n = 3), arithmetic mean ± standard deviation, read-out: t1/2 (converted)",1.47 ± 0.268 h
same,Tmax,"human, plasma, oral, 20 mg, single dose, cycle 1 day 1, 20 mg BID (n = 3), median (min, max), read-out: Tmax",1 h
same,concentration at 28 day,"human, plasma, oral, 40 mg BID, multiple dose, cycle 1 day 28, 40 mg BID (n = 3), geometric mean (coefficient of variation), read-out: Cav ss",139 ng/mL
same,concentration at 28 day,"human, plasma, oral, 40 mg BID, multiple dose, cycle 1 day 28, 40 mg BID (n = 3), geometric mean (coefficient of variation), read-out: Cmin ss",3.74 ng/mL
same,Tmax at 28 day,"human, plasma, oral, 40 mg, multiple dose, cycle 1 day 28, 40 mg BID (n = 3), median (min, max)",0.67 h
same,half-life,"human, plasma, oral, 40 mg, single dose, cycle 1 day 1, 40 mg BID (n = 3), arithmetic mean ± standard deviation, read-out: t1/2 (converted)",1.13 ± 0.324 h
same,AUC(0-t),"human, plasma, oral, 40 mg, single dose, cycle 1 day 1, 40 mg BID (n = 3), geometric mean (coefficient of variation)",1680 ng·h/mL
same,Tmax,"human, plasma, oral, 40 mg, single dose, cycle 1 day 1, 40 mg BID (n = 3), median (min, max), read-out: Tmax",0.68 h
same,concentration at 28 day,"human, plasma, oral, 60 mg BID, multiple dose, cycle 1 day 28, 60 mg BID (n = 4), geometric mean (coefficient of variation), read-out: Cav ss",477 ng/mL
same,concentration at 28 day,"human, plasma, oral, 60 mg BID, multiple dose, cycle 1 day 28, 60 mg BID (n = 4), geometric mean (coefficient of variation), read-out: Cmin ss",35 ng/mL
same,Tmax at 28 day,"human, plasma, oral, 60 mg, multiple dose, cycle 1 day 28, 60 mg BID (n = 4), median (min, max)",0.98 h
same,half-life,"human, plasma, oral, 60 mg, single dose, cycle 1 day 1, 60 mg BID (n = 4), arithmetic mean ± standard deviation, read-out: t1/2 (converted)",2 ± 0.599 h
same,Tmax,"human, plasma, oral, 60 mg, single dose, cycle 1 day 1, 60 mg BID (n = 4), median (min, max), read-out: Tmax",1.25 h
same,concentration at 28 day,"human, plasma, oral, 80 mg BID, multiple dose, cycle 1 day 28, 80 mg BID (n = 4), geometric mean (coefficient of variation), read-out: Cav ss",435 ng/mL
same,concentration at 28 day,"human, plasma, oral, 80 mg BID, multiple dose, cycle 1 day 28, 80 mg BID (n = 4), geometric mean (coefficient of variation), read-out: Cmin ss",6.41 ng/mL
same,Tmax at 28 day,"human, plasma, oral, 80 mg, multiple dose, cycle 1 day 28, 80 mg BID (n = 4), median (min, max)",1.08 h
same,half-life,"human, plasma, oral, 80 mg, single dose, cycle 1 day 1, 80 mg BID (n = 4), arithmetic mean ± standard deviation, read-out: t1/2 (converted)",1.33 ± 0.174 h
same,Tmax,"human, plasma, oral, 80 mg, single dose, cycle 1 day 1, 80 mg BID (n = 4), median (min, max), read-out: Tmax",0.87 h
same,concentration at 28 day,"human, plasma, oral, 110 mg BID, multiple dose, cycle 1 day 28, 110 mg BID (n = 3), geometric mean (coefficient of variation), read-out: Cav ss",1080 ng/mL
same,concentration at 28 day,"human, plasma, oral, 110 mg BID, multiple dose, cycle 1 day 28, 110 mg BID (n = 3), geometric mean (coefficient of variation), read-out: Cmin ss",152 ng/mL
same,Tmax,"human, plasma, oral, 110 mg, multiple dose, cycle 1 day 28, 110 mg BID (n = 3), median (min, max), read-out: Tmax ss",0.67 h
same,half-life,"human, plasma, oral, 110 mg, single dose, cycle 1 day 1, 110 mg BID (n = 3), arithmetic mean ± standard deviation, read-out: t1/2 (converted)",1.48 ± 0.531 h
same,Tmax,"human, plasma, oral, 110 mg, single dose, cycle 1 day 1, 110 mg BID (n = 3), median (min, max), read-out: Tmax",0.7 h
same,concentration at 28 day,"human, plasma, oral, 150 mg BID, multiple dose, cycle 1 day 28, 150 mg BID (n = 4), geometric mean (coefficient of variation), read-out: Cav ss",2120 ng/mL
same,concentration at 28 day,"human, plasma, oral, 150 mg BID, multiple dose, cycle 1 day 28, 150 mg BID (n = 4), geometric mean (coefficient of variation), read-out: Cmin ss",452 ng/mL
same,Tmax,"human, plasma, oral, 150 mg, multiple dose, cycle 1 day 28, 150 mg BID (n = 4), median (min, max), read-out: Tmax ss",0.98 h
same,half-life,"human, plasma, oral, 150 mg, single dose, cycle 1 day 1, 150 mg BID (n = 4), arithmetic mean ± standard deviation, read-out: t1/2 (converted)",1.94 ± 0.706 h
same,Tmax,"human, plasma, oral, 150 mg, single dose, cycle 1 day 1, 150 mg BID (n = 4), median (min, max), read-out: Tmax",0.82 h
same,half-life,"human, plasma, oral, after multiple dosings, read-out: arithmetic mean of t1/2 across dose cohorts",1.13 to 3.26 h
same,half-life,"human, plasma, oral, after single dosing, read-out: arithmetic mean of t1/2 across dose cohorts",0.95 to 2 h
same,Tmax,"human, plasma, oral, cycle 1 day 28, dose range 10 to 150 mg, read-out: median range of Tmax ss",0.67 to 1.47 h
same,Tmax,"human, plasma, oral, single dose on day 1, across dose groups, read-out: median range of Tmax",0.68 to 1.25 h
same,AUC,[2],191 ng·h/mL
same,Cmax at 28 day,[2],115 ng/mL
same,AUC,[3],863 ng·h/mL
same,Cmax at 28 day,[3],350 ng/mL
same,AUC,[4],1670 ng·h/mL
same,Cmax at 28 day,[4],1010 ng/mL
same,AUC,[5],5730 ng·h/mL
same,Cmax at 28 day,[5],1690 ng/mL
same,AUC,[6],5220 ng·h/mL
same,Cmax at 28 day,[6],2260 ng/mL
